In brackets after ≈: the same amount, converted by molar mass. Several values for one entry are separate records, joined by “and”; a condition that tells them apart may be missing. Equal entries are not always repeated. Where two headings read alike, the source gives them in different places.
Key:
[1] = tested on: HCT116 (human colorectal carcinoma); experiment: Disk diffusion assay, zone of inhibition, HCT116; assay type: cell-based; conditions: 1 mg/mL
Experimental: (§1) A disk diffusion assay was performed to define the differential cell killing ability of 15-O-(3′-hydroxy-3′-isopropyl-4′-methylpentanoyl)bruceolide. Seven cell types were assayed: L1210 (ATCC CCL-219) (murine leukemia), CCRF-CEM (ATCC CCL-119) (human leukemia), Colon 38 (murine colon adenocarcinoma), HCT116 (ATCC CCL-247) (human colorectal carcinoma), H125 (human lung carcinoma). The murine and human granulocyte/macrophage progenitor cell line (CFU-GM), served as controls.
(§2) Colon 38 cells (about 1 gram) were cut into small fragments in 15 mL of Hank's Balanced Salt Solution (HBSS) over a 100-mesh sieve and gently forced through by the scissors with HBSS constantly perfusing the sieve. The resulting material was then drawn into and out of a 5 mL syringe without a needle to further disperse the cell clumps. The cell solution was diluted and plated in 0.3% agarose in DMEM plus 10% heat-inactivated Bovine Calf Serum (BCS). For plating of all of the cell types (except controls), the 60 mm plates were first prepared with a hard agar bottom layer (0.6% agar in RPMI-1640 plus 15% BCS).
(§3) HCT116 and H125 cells were maintained in cell culture, and were removed from culture by a trypsin-collagenase-DNAase cocktail. The plating efficiencies of each cell type was sufficiently high that 30,000 cells in 3 mL produced the desired number of colonies (i.e., over 10,000 per plate) in 60 mm plates. This soft agar top layer (0.3% with the serum and media as above) plus the titrated tumor cells were poured into the plates and allowed to solidify.
(§4) A 15 μl sample of each compound was dropped onto a 6.5 mm disk (Baxter filter disks). The disks were allowed to dry overnight and then placed close to the edge of a petri dish. Depending upon the cell type, the dishes were incubated for 7 to 10 days, and examined by an inverted stereo-microscope (10×) for measurement of the zone of inhibition. The zone of inhibition was measured from the edge of the filter disk to the beginning of normal-sized colony formation. The diameter of the filter disk, 6.5 mm, was arbitrarily taken as a zone of 200 units. Compounds that were selective for killing solid tumors, as compared to leukemia or normal cells (“solid tumor selective”) were defined as those compounds which produced a difference in zones between solid tumor cells and either normal or leukemia cells of at least 250 units. The results of this analysis are set forth in Table 4, which illustrates the relative diameters of the zones of inhibition by various drugs on the growth of the respective cell types at various drug dilutions.

murine CFU-GM = experiment: Disk diffusion assay, zone of inhibition, murine CFU-GM; assay type: cell-based; conditions: 1 mg/mL
Experimental: as §1
(§5) For CFU-GM cells, the femoral marrow of BD2F1 mice was flushed with MEM alpha (2 mL per femur). The cells were passed through an 18 gauge needle twice and the monodispersed suspension was counted. A total of 1.5×10^6 cells were plated in 3 mL of 0.3% agar with the addition of 10% L cell conditioned media, which provided colony stimulating factor, in MEM-alpha plus 10% BCS. For human CFU-GM, the cells were obtained from Poietic Technologies, Inc. (Gaithersburg, Md.) and washed twice with PBS before being titered and added to the agar mixture. The same cell number, culture conditions, and conditioning factors used with respect to the murine CFU-GM cells were used with the human cells, except that the cultures were assessed after 10 days of incubation.
as §4

[2] = tested on: Colon 38 (murine colon adenocarcinoma); experiment: Disk diffusion assay, zone of inhibition, Colon 38; zone differentials, potency and product; assay type: cell-based; design: key to C38ΔL1210 / C38ΔCFU: difference of zone of inhibition values, in zone units; conditions: for zone of inhibition, Colon 38: 1 mg/mL; for Sum: C38ΔL1210 plus C38ΔCFU; for C38ΔL1210: Colon38 vs L1210 leukemia; for Product: potency multiplied by zone differentials
Experimental: as §1, §2, §4
The degree of differential sensitivity of several inventive compounds was compared with respect to the Colon38 cell line, the L1210 cell line, and the control CFU-GM cell lines. The degree of differential sensitivity was estimated by calculating the difference between the zone of inhibition values, as determined in Example 6, for the solid tumor compared to either the leukemia (C38ΔL1210) or normal cell (C38ΔCFU).
The potency of each of several inventive compounds was determined by identifying the dilution required to yield an average zone of inhibition of 500 units for the Colon38 cell type. Then the potency and the zone differentials were multiplied to define a “product” (see Table 5), which can be used to rank the compounds tested for their potential for further development; the greater the product value the greater the probability of useful chemotherapeutic utility.

[3] = tested on: H125 (human lung carcinoma); experiment: Disk diffusion assay, zone of inhibition, H125; assay type: cell-based; conditions: 1 mg/mL
Experimental: as §1, §2, §3, §4

human CFU-GM = assay type: cell-based; conditions: 1 mg/mL
Experimental: as §1, §5, §4

[4] = tested on: CCRF-CEM (human leukemia); experiment: Disk diffusion assay, zone of inhibition, CCRF-CEM; assay type: cell-based; conditions: 1 mg/mL
Experimental: as §1, §2, §4

L1210 (murine leukemia) = experiment: Disk diffusion assay, zone of inhibition, L1210; assay type: cell-based; conditions: 1 mg/mL
Experimental: as §1, §2, §4

HCT-116 cells [5] = experiment: HCT-116 cytotoxicity, viable cell count by trypan blue; assay type: cell-based, human
HCT-116 cells [6] = experiment: Clonogenic assay, HCT-116; assay type: cell-based, human; conditions: colonies at 7 days
Experimental: A clonogenic assay was performed using HCT-116 cells. Specifically, HCT-116 cells were seeded at 200 to 20,000 cells in 60 mm dishes. […] At either 2 hours or 24 hours following drug administration, the drug-containing media was removed, and fresh media without drug was added. In addition, one group of cells was subjected to continuous drug exposure for the entire incubation period. The dishes were incubated for 7 days (at 37° C. and 5% CO2), media was removed, and the colonies were stained with methylene blue. Colonies containing 50 cells or more were counted. The results were normalized to an untreated control. Plating efficiency for the untreated cells was about 90%. Repeat experiments also were carried out to define the cell survival range between 1 (100%) and 10^−3 (0.1%) survival. A survival rate of 10^−1 was chosen as the minimal level that would be required in vivo to achieve therapeutic efficacy against HCT-116 cells in tumor-bearing mice. The clonogenic dose response to 15-O-(3′-hydroxy-3′-isopropyl-4′-methylpentanoyl)bruceolide is illustrated in FIG. 4. The clonogenic dose response to 15-(3-isopropyl-4-methyl-2-pentenoyl)-bruceolide is illustrated in FIG. 5.

[7] = Maximum tolerated dose in mice; conditions: intravenous, first stage, one mouse per dose
Experimental: Formulations containing 15-O-(3′-hydroxy-3′-isopropyl-4′-methylpentanoyl)bruceolide, 15-(3-isopropyl-4-methyl-2-pentenoyl)-bruceolide, and, for comparative purposes, bruceantin, or peninsularinone were prepared by solubilizing each compound in up to 100 mg/mL of ethanol. These solutions were diluted 1:1 with a stabilizer (Cremophor/propylene glycol). The solutions were then diluted in saline (1:10 minimum).
The maximum tolerated dose (MTD) was determined by a two-stage experiment. In the first stage, between 1 and 10 mg/mL of the formulation was prepared as described above. Next, 0.25 mL of the formulation was injected intravenously into one 20 gram mouse (0.75 mg/mouse). If the animal died within 30 days of injection, a series of subsequent 2-fold dilutions were administered to individual mice until an MTD was defined. […] The second stage of the study involved increasing the number of mice per dose to four, and retesting four dilutions that bracket the MTD from the individual mouse study. The four dilutions were the MTD, a dosage twice the MTD, a dosage ½ the MTD, and a dosage ¼ the MTD.

[8] = no dilution, 15 μl on disk, 6.5 mm = 200 units
[9] = difference between zone of inhibition values
[10] = HCT-116, 3 days with compound, viable cells, by interpolation

CC(=O)O[C@H]1C(=O)[C@@]2(C)[C@H]([C@H](OC(=O)c3ccccc3)[C@]3(O)C[C@H](OC(=O)[C@H](O)[C@@H](NC(=O)c4ccccc4)c4ccccc4)C(C)=C1C3(C)C)[C@]1(OC(C)=O)CO[C@@H]1C[C@@H]2O [Taxol, taxol]
zone of inhibition, H-116 ([1]; dilution 1/4): 750 units | zone of inhibition, H-116 ([1]; dilution 1/16): 650 units | zone of inhibition, H-116 ([1]; dilution 1/64): 550 units | zone of inhibition, H-116 ([1]; dilution 1/256): 400 units | zone of inhibition, H-116 [1, 8]: 850 units | zone of inhibition, murine CFU-GM (murine CFU-GM; dilution 1/4): 600 units | zone of inhibition, murine CFU-GM (murine CFU-GM; dilution 1/16): 550 units | zone of inhibition, murine CFU-GM (murine CFU-GM; dilution 1/64): 400 units | zone of inhibition, murine CFU-GM (murine CFU-GM; dilution 1/256): 150 units | zone of inhibition, murine CFU-GM (murine CFU-GM; [8]): 650 units | zone of inhibition, Colon 38 ([2]; dilution 1/4): 900 units | zone of inhibition, Colon 38 ([2]; dilution 1/16): 750 units | zone of inhibition, Colon 38 ([2]; dilution 1/64): 600 units | zone of inhibition, Colon 38 ([2]; dilution 1/256): 450 units | zone of inhibition, Colon 38 [2, 8]: >1000 units | Sum [2]: 700 | C38ΔL1210 [2, 9]: 400 | C38ΔCFU ([2]; difference between zone of inhibition values, Colon38 vs normal cell CFU-GM): 300 | Product [2]: 3500 | zone of inhibition, H-125 M ([3]; dilution 1/4): 850 units | zone of inhibition, H-125 M ([3]; dilution 1/16): 750 units | zone of inhibition, H-125 M ([3]; dilution 1/64): 650 units | zone of inhibition, H-125 M ([3]; dilution 1/256): 500 units | zone of inhibition, H-125 M [3, 8]: >1000 units | zone of inhibition, human CFU-GM (human CFU-GM; dilution 1/4): >1000 units | zone of inhibition, human CFU-GM (human CFU-GM; dilution 1/16): 800 units | zone of inhibition, human CFU-GM (human CFU-GM; dilution 1/64): 750 units | zone of inhibition, human CFU-GM (human CFU-GM; dilution 1/256): 550 units | zone of inhibition, human CFU-GM (human CFU-GM; [8]): >1000 units | zone of inhibition, CEM ([4]; dilution 1/4): >1000 units | zone of inhibition, CEM ([4]; dilution 1/16): 900 units | zone of inhibition, CEM ([4]; dilution 1/64): 750 units | zone of inhibition, CEM ([4]; dilution 1/256): 550 units | zone of inhibition, CEM [4, 8]: >1000 units | zone of inhibition, L1210 (L1210 (murine leukemia); dilution 1/4): 550 units | zone of inhibition, L1210 (L1210 (murine leukemia); dilution 1/16): 500 units | zone of inhibition, L1210 (L1210 (murine leukemia); dilution 1/64): 350 units | zone of inhibition, L1210 (L1210 (murine leukemia); dilution 1/256): 50 units | zone of inhibition, L1210 (L1210 (murine leukemia); [8]): 650 units

CC[C@@](O)(CC(=O)O[C@@H]1C(=O)O[C@@H]2C[C@@H]3C(C)=CC(=O)[C@H](O)[C@]3(C)[C@H]3[C@]4(O)OC[C@]32[C@@H]1[C@@H](C)[C@H]4O)C(C)C [Peninsularinone, peninsularinone]
zone of inhibition, H-116 ([1]; dilution 1/10): >1000 units | zone of inhibition, H-116 ([1]; dilution 1/100): 950 units | zone of inhibition, H-116 ([1]; dilution 1/1000): 450 units | zone of inhibition, H-116 [1, 8]: >1000 units | IC90/IC50 (HCT-116 cells [5]; HCT-116): 13 | IC50 (HCT-116 cells [5]; [10]): 1.2 ng/mL (≈ 0.00224 µM) | IC90 (HCT-116 cells [5]; [10]): 15 ng/mL (≈ 0.028 µM) | zone of inhibition, murine CFU-GM (murine CFU-GM; dilution 1/10): >1000 units | zone of inhibition, murine CFU-GM (murine CFU-GM; dilution 1/100): 450 units | zone of inhibition, murine CFU-GM (murine CFU-GM; dilution 1/4000): 0 units | zone of inhibition, murine CFU-GM (murine CFU-GM; dilution 1/10000): 0 units | zone of inhibition, murine CFU-GM (murine CFU-GM; [8]): >1000 units | Concentration Required for 10^−1 Survival Fraction (HCT-116 cells [6]; HCT-116, 2 Hour Exposure): >10 μg/mL | Concentration Required for 10^−1 Survival Fraction (HCT-116 cells [6]; HCT-116, 24 Hour Exposure): 1 × 10^−2 μg/mL | Concentration Required for 10^−1 Survival Fraction (HCT-116 cells [6]; HCT-116, Continuous Exposure): 1 × 10^−3 μg/mL | zone of inhibition, Colon 38 ([2]; dilution 1/10): >1000 units | zone of inhibition, Colon 38 ([2]; dilution 1/100): >1000 units | zone of inhibition, Colon 38 ([2]; dilution 1/1000): 800 units and 550 units | zone of inhibition, Colon 38 ([2]; dilution 1/4000): 250 units | zone of inhibition, Colon 38 ([2]; dilution 1/10000): 200 units | zone of inhibition, Colon 38 [2, 8]: >1000 units | Sum [2]: 1100 and 550 | C38ΔL1210 [2, 9]: 450 and 250 | Product [2]: 6600 and 3575 | zone of inhibition, H-125 M ([3]; dilution 1/10): >1000 units | zone of inhibition, H-125 M ([3]; dilution 1/100): 1000 units | zone of inhibition, H-125 M ([3]; dilution 1/1000): 400 units | zone of inhibition, H-125 M [3, 8]: >1000 units | maximum tolerated dose, Dose - 1 Mouse [7]: 0.01 mg/mouse and 0.45 mg/kg | zone of inhibition, CEM ([4]; dilution 1/10): >1000 units | zone of inhibition, CEM ([4]; dilution 1/100): 800 units | zone of inhibition, CEM ([4]; dilution 1/1000): 500 units | zone of inhibition, CEM [4, 8]: >1000 units | zone of inhibition, L1210 (L1210 (murine leukemia); dilution 1/10): >1000 units | zone of inhibition, L1210 (L1210 (murine leukemia); dilution 1/100): 700 units | zone of inhibition, L1210 (L1210 (murine leukemia); dilution 1/1000): 300 units and 200 units | zone of inhibition, L1210 (L1210 (murine leukemia); dilution 1/4000): 50 units | zone of inhibition, L1210 (L1210 (murine leukemia); dilution 1/10000): 100 units | zone of inhibition, L1210 (L1210 (murine leukemia); [8]): >1000 units
